Assay results: US12590062B2, “PD-1/PD-L1 inhibitors” (Gilead Sciences, Inc., priority 2017, dated 2026)

What was measured:
[1] = molecular target: T1, PD-1/PD-L1 interaction (Homo sapiens, UniProt Q9NZQ7); assay: PD-1/PD-L1 NFAT reporter co-culture assay; assay type: cell-based; details: Jurkat PD-1 NFAT-luciferase cells co-cultured with aAPC-PD-L1 CHO cells, 6 hrs at 37° C.; read-out: EC50 NFAT Luciferase
T1 construct: expressed in transfected cells; host or cells: CHO cells (aAPC-PD-L1) co-cultured with Jurkat cells overexpressing PD-1 and an NFAT-luciferase reporter
T1 sequence (Q9NZQ7 19-290): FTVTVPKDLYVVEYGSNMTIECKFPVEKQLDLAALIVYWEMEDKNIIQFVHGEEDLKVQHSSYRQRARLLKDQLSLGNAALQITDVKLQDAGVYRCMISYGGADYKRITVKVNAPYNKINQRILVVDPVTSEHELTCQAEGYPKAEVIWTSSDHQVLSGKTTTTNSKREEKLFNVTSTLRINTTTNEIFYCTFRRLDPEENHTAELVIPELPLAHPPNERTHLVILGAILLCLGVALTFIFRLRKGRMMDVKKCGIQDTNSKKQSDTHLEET
Summary of the method: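 Luminescence (ONE-Glo) after 6 h, 37 °C co-culture reports NFAT-luciferase in PD-1 Jurkat cells, which PD-1/PD-L1 engagement suppresses. Partner cells: CHO expressing anti-CD3 and PD-L1. EC50 from four-parameter dose-response fit.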

[2] = molecular target: T2, interaction between the recombinant extracellular domain (ECD) of PD-1 and native cell-bound PD-L1 (Homo sapiens, UniProt Q9NZQ7); assay: CHO/PD-L1 cell capture assay; assay type: cell-based; details: CHO cells overexpressing PD-L1, pre-incubated 1 hr with compound, captured on biotinylated Fc-PD-1 coated plates, 75 min at room temperature
T2 construct: expressed in transfected cells
T2 sequence (Q9NZQ7 19-290): as above
Protocol: EC50-CHO/PD-L1-Capture Assay:
Compounds were tested in a cell capture assay to determine if they can specifically block the interaction between the recombinant extracellular domain (ECD) of PD-1 and native cell-bound PD-L1. Binding affinity of stable CHO cells overexpressing PD-L1 with its cognate recombinant ligand coated on plates was measured by counting the number of ‘captured’ cells. High-capacity streptavidin- coated plates were incubated with biotylated-Fc-PD-1 for 2 hours in PBS. Unbound ligand was washed out. CHO-PD-L1 cells (resuspended in PBS pH 7.4, 0.5 mM EDTA, and 2% bovine serum albumin) were pre-incubated for 1 hr with compound, dispensed into each PD-1 ECD coated well and then incubated for 75 min at room temperature. To stop the capture assay, a fixative/staining solution (final concentrations are 1.3% glutaraldehyde and 1.67 μM Draq5) was gently added to the cells and incubated for 2 hrs at room temperature. Unbound cells were then washed out and ‘captured’ cells were enumerated using a high-content microscopy system. EC50 values were calculated from the fit of the dose-response curves to a four-parameter equation. Representative data are shown below in Table 2.

Compound	EC50 [1] [nM]	EC50 [2] [nM]
COc1nc(OCc2cccc(-c3cccc(COc4nc(OC)c(CN[C@@H]5CC[C@H](C(=O)O)C5)cc4Cl)c3C)c2C)c(Cl)cc1CN[C@@H]1CC[C@H](C(=O)O)C1 [Example 185, (1S,1′S,3R,3′R)-3,3′-((((((2,2′-dimethyl-[1,1′-biphenyl]-3,3′-diyl)bis(methylene))bis(oxy))bis(5-chloro-2-methoxypyridine-6,3-diyl))bis(methylene))bis(azanediyl))bis(cyclopentane-1-carboxylic acid)]	195	277
C[C@](CO)(NCc1cc(Br)c(OCc2cccc(-c3cccc(COc4nc(OCc5cncc(C#N)c5)c(CN[C@](C)(CO)C(=O)O)cc4Br)c3Cl)c2Cl)nc1OCc1cncc(C#N)c1)C(=O)O [Example 198, (2R,2′R)-2,2′-((((((2,2′-Dichloro-[1,1′-biphenyl]-3,3′-diyl)bis(methylene))bis(oxy))bis(5-bromo-2-((5-cyanopyridin-3-yl)methoxy)pyridine-6,3-diyl))bis(methylene))bis(azanediyl))bis(3-hydroxy-2-methylpropanoic acid)]	69	101
COc1nc(OCc2cccc(-c3cccc(COc4nc(OC)c(CNC5(C#N)CCC5)cc4Cl)c3C)c2C)c(Cl)cc1CNC1(C#N)CCC1 [Example 231, 1,1′-((((((2,2′-dimethyl-[1,1′-biphenyl]-3,3′-diyl)bis(methylene))bis(oxy))bis(5-chloro-2-methoxypyridine-6,3-diyl))bis(methylene))bis(azanediyl))bis(cyclobutane-1-carbonitrile)]	962	277
COc1nc(OCc2cccc(-c3cccc(COc4nc(OC)c(CN5CCC[C@@H]5C(=O)O)cc4Cl)c3C)c2C)c(Cl)cc1CN1CCC[C@@H]1C(=O)O [Example 234, (2′R)-(((((2,2′-dimethyl-[1,1′-biphenyl]-3,3′-diyl)bis(methylene))bis(oxy))bis(5-chloro-2-methoxypyridine-6,3-diyl))bis(methylene))di-D-proline]	444	132

The next lines start with the values.

EC50 [1] [nM]	EC50 [2] [nM]	Compound
439	91.4	COc1nc(OCc2cccc(-c3cccc(COc4nc(OC)c(CN[C@H](C)[C@@H](O)CC(=O)O)cc4Cl)c3C)c2C)c(Cl)cc1CN[C@H](C)[C@@H](O)CC(=O)O [Example 182, (3S,3′S,4R,4′R)-4,4′-((((((2,2′-dimethyl-[1,1′-biphenyl]-3,3′-diyl)bis(methylene))bis(oxy))bis(5-chloro-2-methoxypyridine-6,3-diyl))bis(methylene))bis(azanediyl))bis(3-hydroxypentanoic acid)]
514	206	COc1cc(OCc2cccc(-c3cccc(COc4cc(OCc5cncc(C#N)c5)c(CNC[C@H](O)C(=O)O)cc4Cl)c3C)c2C)c(Cl)cc1CNC[C@H](O)C(=O)O [Example 216, (S)-3-((4-((3′-((4-((((S)-2-carboxy-2-hydroxyethyl)amino)methyl)-2-chloro-5-((5-cyanopyridin-3-yl)methoxy)phenoxy)methyl)-2,2′-dimethyl-[1,1′-biphenyl]-3-yl)methoxy)-5-chloro-2-methoxybenzyl)amino)-2-hydroxypropanoic acid]
589	71.6	COc1cc(OCc2cccc(-c3cccc(COc4cc(OCc5cncc(C#N)c5)c(CNCC(=O)O)cc4Cl)c3C)c2C)c(Cl)cc1CNCC(=O)O [Example 217, (4-((3′-((4-(((carboxymethyl)amino)methyl)-2-chloro-5-((5-cyanopyridin-3-yl)methoxy)phenoxy)methyl)-2,2′-dimethyl-[1,1′-biphenyl]-3-yl)methoxy)-5-chloro-2-methoxybenzyl)glycine]
57	10.3	Cc1c(COc2cc(OCc3cncc(C#N)c3)c(CNC[C@@H](O)CC(=O)O)cc2Cl)cccc1-c1cccc(-c2ccc(OCCNC[C@@H](O)CC(=O)O)c(Cl)c2)c1C [Example 288, (S)-4-((4-((4″-(2-(((S)-3-carboxy-2-hydroxypropyl)amino)ethoxy)-3″-chloro-2,2′-dimethyl-[1,1′:3′,1″-terphenyl]-3-yl)methoxy)-5-chloro-2-((5-cyanopyridin-3-yl)methoxy)benzyl)amino)-3-hydroxybutanoic acid]
